Results as given in publication PMC11547703, “Design, Synthesis, and Evaluation of Doxifluridine Derivatives as Nitroreductase-Responsive Anticancer Prodrugs” (Molecules, 2024).

Test system: HT29 human colon cancer cells
Experiment: In vitro cytotoxicity (MTT assay) in HT29 cells with or without NTR
Type: cell-based
Settings: HT29, selectivity ratio
Description: (§1) The cytotoxicity of the target compounds 1c–6c were evaluated in MCF-7 human breast cancer cells and HT29 human colon cancer cells. These two cell lines were chosen because 5′-DFUR is currently used to treat breast and gastrointestinal tumors. The cells were incubated with the target compounds at various concentrations for 24 h in the presence or absence of NTR. The cell viability and proliferation behavior were assessed by 3-(4,5-dimethylthiazol-2-yl)-2,5-diphenyltetrazolium (MTT) assay. The half-maximal inhibitory concentration values of the tested compounds for inhibiting cell proliferation are shown in Table 1.
(§2) MCF-7 human breast cancer cells or HT29 human colon cancer cells purchased from the National Collection of Authenticated Cell Cultures were cultured in RPMI 1640 medium, and McCoy’s 5A medium supplemented with 10% fetal bovine serum and 1% penicillin-streptomycin in a humidified 5% CO2 incubator at 37 °C. Cells in the logarithmic growth phase were inoculated into 96-well plates at a density of 1.0 × 10^4 cells per well and cultured for 24 h. The target compounds were dissolved in DMSO and diluted in medium to different concentrations. The cells were then incubated with different concentrations of the target compound for 24 h. The cells in the NTR treatment group were incubated with various concentrations of compounds, NTR (final concentration, 50 µg/mL) and NADH (final concentration, 2 mM) for 24 h. Cell viability and proliferation were measured by MTT assay. Cell viability was calculated according to the following formula: cell viability (%) = (OD value of treatment group–OD value of blank group)/(OD value of control group–OD value of blank group) × 100. The half-maximal inhibitory concentration values were calculated from concentration-response curves using GraphPad PRISM (version 5.0, GraphPad, San Diego, CA, USA).
In the case of `C[C@H]1O[C@@H](n2cc(F)c(=O)n(Cc3ccc([N+](=O)[O-])s3)c2=O)[C@H](O)[C@@H]1O` [Compound 3c], the “IC50 (NTR-Free)/ IC50 (NTR)” value is reported as 7.22. With `C[C@H]1O[C@@H](n2cc(F)c(=O)n(Cc3ccccc3)c2=O)[C@H](O)[C@@H]1O` [Compound 4c] the “IC50 (NTR-Free)/ IC50 (NTR)” value was 1.01.

Same assay, conditions: Homo sapiens, HT-29; HT29, 24 h, medium with NTR and NADH 2 mM, MTT; read-out: IC50 NTR
`C[C@H]1O[C@@H](n2cc(F)c(=O)n(Cc3ccc([N+](=O)[O-])s3)c2=O)[C@H](O)[C@@H]1O` [Compound 3c] showed an IC50 of 63.3 µM. `C[C@H]1O[C@@H](n2cc(F)c(=O)n(Cc3ccccc3)c2=O)[C@H](O)[C@@H]1O` [Compound 4c] gave an IC50 of 614 µM.

Same assay, conditions: Homo sapiens, HT-29; HT29, 24 h, medium without NTR, MTT; read-out: IC50 NTR-Free
Compound `C[C@H]1O[C@@H](n2cc(F)c(=O)n(Cc3ccc([N+](=O)[O-])s3)c2=O)[C@H](O)[C@@H]1O` [Compound 3c] has an IC50 of 457 µM. With `C[C@H]1O[C@@H](n2cc(F)c(=O)n(Cc3ccccc3)c2=O)[C@H](O)[C@@H]1O` [Compound 4c] the IC50 was 621 µM.

Test system: MCF-7 human breast cancer cells
Experiment: In vitro cytotoxicity (MTT assay) in MCF-7 cells with or without NTR
Type: cell-based
Settings: Homo sapiens, MCF7; MCF-7, 24 h, medium with NTR and NADH 2 mM, MTT; read-out: IC50 NTR
Description: as §1, §2
For `C[C@H]1O[C@@H](n2cc(F)c(=O)n(Cc3ccc([N+](=O)[O-])s3)c2=O)[C@H](O)[C@@H]1O` [Compound 3c], the IC50 was 96.4 µM. Work on `C[C@H]1O[C@@H](n2cc(F)c(=O)n(Cc3ccccc3)c2=O)[C@H](O)[C@@H]1O` [Compound 4c] yielded an IC50 of 537 µM.

Same assay, conditions: Homo sapiens, MCF7; MCF-7, 24 h, medium without NTR, MTT; read-out: IC50 NTR-Free
In the case of `C[C@H]1O[C@@H](n2cc(F)c(=O)n(Cc3ccc([N+](=O)[O-])s3)c2=O)[C@H](O)[C@@H]1O` [Compound 3c], the IC50 is reported as 435 µM. `C[C@H]1O[C@@H](n2cc(F)c(=O)n(Cc3ccccc3)c2=O)[C@H](O)[C@@H]1O` [Compound 4c] showed an IC50 of 495 µM.

Same assay, conditions: MCF-7, selectivity ratio
For `C[C@H]1O[C@@H](n2cc(F)c(=O)n(Cc3ccc([N+](=O)[O-])s3)c2=O)[C@H](O)[C@@H]1O` [Compound 3c], the “IC50 (NTR-Free)/ IC50 (NTR)” value was 4.52. With `C[C@H]1O[C@@H](n2cc(F)c(=O)n(Cc3ccccc3)c2=O)[C@H](O)[C@@H]1O` [Compound 4c] the “IC50 (NTR-Free)/ IC50 (NTR)” value was 0.92.

Test system: not listed separately
Experiment: Stability of target compounds in rat plasma, HPLC
Type: in vitro ADME, SD rat
Settings: 50 μM, 37 °C
Description: (§3) The stability of the target compounds was tested first, and excellent stability was essential for physiological function evaluation. Phosphate-buffered saline (PBS) of different pH values was used to evaluate the stability of the target compounds in a weakly acidic tumor microenvironment (pH 6.5) versus a weakly alkaline normal physiological environment (pH 7.4). […] The stability of the target compounds in mouse and rat plasma was excellent. The concentrations of all target compounds remained at >80% of the initial concentrations after 24 h, with the concentrations of compounds 1c, 2c, and 3c being 89%, 88%, and 83% in mouse plasma and 86%, 84%, and 81% in rat plasma, respectively (Figure 3c,d).
(§4) PBS (pH 7.4) was made with 137 mM NaCl, 2.7 mM KCl, 10 mM Na2HPO4, and 1.8 mM KH2PO4, while PBS (pH 6.5) was made with 24.6 mM Na2HPO4 and 175.4 mM NaH2PO4. The target compounds were dissolved into the different buffers (50 μM; 1% DMSO), and the mixtures were incubated at 37 °C. A 100-μL sample was transferred to a vial for HPLC analysis at 1, 2, 4, 8, 12, and 24 h. C57BL/6 mice and SD rat orbital whole blood was collected into anticoagulation tubes and centrifuged at 4000× g for 5 min at 4 °C to obtain plasma. The target compounds were dissolved into the plasma (50 μM; 1% DMSO) and incubated at 37 °C. Each sample (100 μL) was collected and precipitated using 100 μL of acetonitrile. The mixture was vortexed for 5 min and centrifuged at 10,000× g for 10 min. The supernatant was transferred to a vial for HPLC analysis after 1, 2, 4, 8, 12, and 24 h.
For `C[C@H]1O[C@@H](n2cc(F)c(=O)n(Cc3ccc([N+](=O)[O-])s3)c2=O)[C@H](O)[C@@H]1O` [Compound 3c], the “concentration relative to initial concentration after 24 h in rat plasma” value was 81%.

Test system: not listed separately
Experiment: Stability of target compounds in phosphate-buffered saline (pH 6.5 and pH 7.4), HPLC
Type: physicochemical
Settings: PBS pH 6.5 and 7.4, mouse and rat plasma (Figure S1)
Description: as §3, §4
With `C[C@H]1O[C@@H](n2cc(F)c(=O)n(Cc3ccccc3)c2=O)[C@H](O)[C@@H]1O` [Compound 4c] the “stability in PBS at different pH values and plasma (in words)” value was “similarly stable”.

Test system: not listed separately
Experiment: Stability of target compounds in mouse plasma, HPLC
Type: in vitro ADME, C57BL/6 mice
Settings: 50 μM, 37 °C
Description: as §3, §4
In the case of `C[C@H]1O[C@@H](n2cc(F)c(=O)n(Cc3ccc([N+](=O)[O-])s3)c2=O)[C@H](O)[C@@H]1O` [Compound 3c], the “concentration relative to initial concentration after 24 h in mouse plasma” value is reported as 83%.

Biological target: T1, NTR (Escherichia coli, UniProt P38489)
T1 construct: host or cells: Escherichia coli
T1 sequence (P38489 whole entry): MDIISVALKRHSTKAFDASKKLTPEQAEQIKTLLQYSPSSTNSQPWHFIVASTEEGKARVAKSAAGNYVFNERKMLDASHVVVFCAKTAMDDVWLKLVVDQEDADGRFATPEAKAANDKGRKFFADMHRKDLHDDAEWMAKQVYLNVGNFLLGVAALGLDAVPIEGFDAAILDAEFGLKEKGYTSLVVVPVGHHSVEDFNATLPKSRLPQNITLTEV
Experiment: In vitro release evaluation: incubation with NTR and NADH, HPLC of derivative and released 5′-DFUR
Type: biochemical
Settings: Escherichia coli; 50 µM compound, NTR 50 µg/mL, NADH 2 mM, PBS pH 7.4, 37 °C; read-out: half-life in the presence of NTR (converted)
Description: (§5) NTR levels are reportedly much higher in hypoxic tumors than in normal tissues. To investigate the mechanism of activation of the derivatives and the amount of 5′-DFUR released, we treated the target compounds with NTR extracted from Escherichia coli to determine whether they provided the desired active agent as expected. The test compounds (50 µM, 1% dimethyl sulfoxide [DMSO]) were dissolved in PBS buffer at pH 7.4 and incubated with NTR (50 µg/mL) and NADH (2 mM) at 37 °C, and the concentrations of the derivatives and 5′-DFUR during the bioreduction were detected by high-performance liquid chromatography (HPLC). The designed target compounds 1c–3c could be metabolized to form 5′-DFUR in the presence of NTR, while the nitro-free compounds 4c–6c could not be metabolized to form 5′-DFUR. […] The metabolic rate of compound 2c was the highest, with a half-life of 0.6 h. It was completely degraded after 4 h, and 69.6% of 5′-DFUR was released. […] During the experiment, other metabolites, such as hydroxylamine derivatives and amino derivatives generated by reducing the nitro group were also detected. […] Compounds 4c, 5c and 6c, without nitro groups, remained well-stabilized under NTR conditions, with concentrations > 90% after 12 h.
(§6) The target compounds NTR and NADH were dissolved in 10 mM PBS (pH 7.4; 1% DMSO). The final concentrations of the target compounds NTR and NADH in the mixtures were 50 μM, 50 μg/mL, and 2 mM, respectively. The mixture were incubated at 37 °C. The sample (100 μL) was collected and quenched by 100 µL of cold methanol. The mixture was vortexed for 5 min and centrifuged at 10,000× g for 10 min. The supernatant was transferred to a vial for HPLC analysis at 0.25, 0.5, 1, 2, 4, 8, and 12 h.
For `C[C@H]1O[C@@H](n2cc(F)c(=O)n(Cc3ccc([N+](=O)[O-])s3)c2=O)[C@H](O)[C@@H]1O` [Compound 3c], the half-life at 50 µM was 60 min.

Biological target: T2, NTR extracted from Escherichia coli (Escherichia coli, UniProt P38489)
T2 construct: host or cells: Escherichia coli
T2 sequence (P38489 whole entry): as above
Experiment: as above
Type: biochemical
Settings: 50 µM compound, NTR 50 µg/mL, NADH 2 mM, PBS pH 7.4, 37 °C
Description: as §5, §6
In the case of `C[C@H]1O[C@@H](n2cc(F)c(=O)n(Cc3ccc([N+](=O)[O-])s3)c2=O)[C@H](O)[C@@H]1O` [Compound 3c], the “time after which compound was completely degraded by NTR” value is reported as 8 h.

Same assay, conditions: 50 µM compound, NTR 50 µg/mL, NADH 2 mM, PBS pH 7.4, 37 °C, at complete degradation
In the case of `C[C@H]1O[C@@H](n2cc(F)c(=O)n(Cc3ccc([N+](=O)[O-])s3)c2=O)[C@H](O)[C@@H]1O` [Compound 3c], the “5′-DFUR released” value is reported as 55.6%.

Same assay, conditions: NTR 50 µg/mL, NADH 2 mM, PBS pH 7.4, 37 °C, 12 h
For `C[C@H]1O[C@@H](n2cc(F)c(=O)n(Cc3ccccc3)c2=O)[C@H](O)[C@@H]1O` [Compound 4c], the “concentration remaining under NTR conditions after 12 h” value was greater than 90%.
